In assay [1] the target is T1, Prostaglandin G/H synthase 1 (Ovis aries) (UniProt P05979).
T1 sequence (whole entry): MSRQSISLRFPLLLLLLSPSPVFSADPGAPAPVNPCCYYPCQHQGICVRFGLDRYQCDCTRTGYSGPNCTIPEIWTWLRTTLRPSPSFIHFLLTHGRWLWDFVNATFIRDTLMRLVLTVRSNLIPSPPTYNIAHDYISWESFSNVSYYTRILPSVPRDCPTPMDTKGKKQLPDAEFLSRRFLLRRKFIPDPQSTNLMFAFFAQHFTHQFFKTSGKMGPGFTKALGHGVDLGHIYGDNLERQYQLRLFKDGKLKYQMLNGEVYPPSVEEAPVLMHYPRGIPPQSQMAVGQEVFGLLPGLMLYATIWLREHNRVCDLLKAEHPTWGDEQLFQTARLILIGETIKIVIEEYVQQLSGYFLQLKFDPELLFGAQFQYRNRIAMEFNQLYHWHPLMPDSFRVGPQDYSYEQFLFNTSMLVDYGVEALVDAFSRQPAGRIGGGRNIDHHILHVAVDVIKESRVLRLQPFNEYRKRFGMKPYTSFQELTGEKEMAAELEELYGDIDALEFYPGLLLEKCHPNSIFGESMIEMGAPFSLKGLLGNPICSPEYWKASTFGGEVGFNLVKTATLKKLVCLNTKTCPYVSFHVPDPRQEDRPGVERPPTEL
In words: Reversible binding to ram seminal vesicle COX1 at 300 uM at 600 MHz and 37 degC by saturation transfer difference 1[H]NMR spectroscopy.

The target in assay [2] is T2, Prostaglandin G/H synthase 2 (Homo sapiens, UniProt P35354).
T2 sequence (P35354 whole entry): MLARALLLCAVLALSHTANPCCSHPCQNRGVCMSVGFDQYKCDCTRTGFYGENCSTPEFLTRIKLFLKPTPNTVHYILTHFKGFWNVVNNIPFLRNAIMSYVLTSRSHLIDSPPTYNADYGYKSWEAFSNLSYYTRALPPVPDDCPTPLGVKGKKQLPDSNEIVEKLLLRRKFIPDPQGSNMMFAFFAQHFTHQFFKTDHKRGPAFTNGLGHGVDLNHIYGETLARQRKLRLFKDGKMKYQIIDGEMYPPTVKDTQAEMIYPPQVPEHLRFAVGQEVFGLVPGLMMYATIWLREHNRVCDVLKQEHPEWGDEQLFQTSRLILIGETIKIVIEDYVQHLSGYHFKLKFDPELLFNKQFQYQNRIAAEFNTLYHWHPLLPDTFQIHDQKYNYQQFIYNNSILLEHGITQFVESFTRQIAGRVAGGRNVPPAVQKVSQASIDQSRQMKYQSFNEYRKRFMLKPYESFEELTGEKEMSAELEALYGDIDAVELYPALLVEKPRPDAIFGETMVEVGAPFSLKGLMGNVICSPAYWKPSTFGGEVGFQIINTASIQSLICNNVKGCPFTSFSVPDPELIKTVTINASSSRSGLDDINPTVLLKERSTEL
In words: Instantaneous inhibition of human COX2 measured immediately after incubation of enzyme with compound.

The target in assay [3] is T2, Prostaglandin G/H synthase 2. The assay is described as follows: Inhibition of human COX2 measured after pre-incubation of enzyme with compound.

Each structure is given as a SMILES string. pIC50: −log10 of the molar value. Calls of active or inactive are those of the source. The calls are words filed in the database; no cut-off is given here.

Usually pIC50 stands for the negative decadic logarithm of the IC50, by convention in mol/L.

As to `CC(C)Cc1ccc(C(C)C(=O)O)cc1` (stereo not given), in assay [1], the result was Active.

Consider `O=C(O)Cc1ccccc1Nc1c(Cl)cccc1Cl`, for which, in assay [1], the outcome was Active.

For `O=C(c1ccccc1)c1ccc2n1CCC2C(=O)O` (racemic) [KETOROLAC TROMETHAMINE], the negative-log IC50 (pIC50) in assay [2] is 4.22; in assay [3], 6.92. Further, the result in assay [1] was Active.
